According to ChEMBL document CHEMBL5380826, “Conformationally Restricted σ1 Receptor Antagonists from (-)-Isopulegol” (J Med Chem, 2023):
Calls of active or inactive are those of the source. The calls are words filed in the database; no cut-off is given here.

Columns and labels:
[1] = target: Glutamate receptor ionotropic, NMDA 2B (Mus musculus) (UniProt Q01097); experiment: Displacement of [3H]ifenprodil from GluN2B in mouse LTK cells at 1 uM measured after 120 mins by scintillation counting method relative to control; format: cell-based
Sequence of Glutamate receptor ionotropic, NMDA 2B (Mus musculus) (Q01097 whole entry): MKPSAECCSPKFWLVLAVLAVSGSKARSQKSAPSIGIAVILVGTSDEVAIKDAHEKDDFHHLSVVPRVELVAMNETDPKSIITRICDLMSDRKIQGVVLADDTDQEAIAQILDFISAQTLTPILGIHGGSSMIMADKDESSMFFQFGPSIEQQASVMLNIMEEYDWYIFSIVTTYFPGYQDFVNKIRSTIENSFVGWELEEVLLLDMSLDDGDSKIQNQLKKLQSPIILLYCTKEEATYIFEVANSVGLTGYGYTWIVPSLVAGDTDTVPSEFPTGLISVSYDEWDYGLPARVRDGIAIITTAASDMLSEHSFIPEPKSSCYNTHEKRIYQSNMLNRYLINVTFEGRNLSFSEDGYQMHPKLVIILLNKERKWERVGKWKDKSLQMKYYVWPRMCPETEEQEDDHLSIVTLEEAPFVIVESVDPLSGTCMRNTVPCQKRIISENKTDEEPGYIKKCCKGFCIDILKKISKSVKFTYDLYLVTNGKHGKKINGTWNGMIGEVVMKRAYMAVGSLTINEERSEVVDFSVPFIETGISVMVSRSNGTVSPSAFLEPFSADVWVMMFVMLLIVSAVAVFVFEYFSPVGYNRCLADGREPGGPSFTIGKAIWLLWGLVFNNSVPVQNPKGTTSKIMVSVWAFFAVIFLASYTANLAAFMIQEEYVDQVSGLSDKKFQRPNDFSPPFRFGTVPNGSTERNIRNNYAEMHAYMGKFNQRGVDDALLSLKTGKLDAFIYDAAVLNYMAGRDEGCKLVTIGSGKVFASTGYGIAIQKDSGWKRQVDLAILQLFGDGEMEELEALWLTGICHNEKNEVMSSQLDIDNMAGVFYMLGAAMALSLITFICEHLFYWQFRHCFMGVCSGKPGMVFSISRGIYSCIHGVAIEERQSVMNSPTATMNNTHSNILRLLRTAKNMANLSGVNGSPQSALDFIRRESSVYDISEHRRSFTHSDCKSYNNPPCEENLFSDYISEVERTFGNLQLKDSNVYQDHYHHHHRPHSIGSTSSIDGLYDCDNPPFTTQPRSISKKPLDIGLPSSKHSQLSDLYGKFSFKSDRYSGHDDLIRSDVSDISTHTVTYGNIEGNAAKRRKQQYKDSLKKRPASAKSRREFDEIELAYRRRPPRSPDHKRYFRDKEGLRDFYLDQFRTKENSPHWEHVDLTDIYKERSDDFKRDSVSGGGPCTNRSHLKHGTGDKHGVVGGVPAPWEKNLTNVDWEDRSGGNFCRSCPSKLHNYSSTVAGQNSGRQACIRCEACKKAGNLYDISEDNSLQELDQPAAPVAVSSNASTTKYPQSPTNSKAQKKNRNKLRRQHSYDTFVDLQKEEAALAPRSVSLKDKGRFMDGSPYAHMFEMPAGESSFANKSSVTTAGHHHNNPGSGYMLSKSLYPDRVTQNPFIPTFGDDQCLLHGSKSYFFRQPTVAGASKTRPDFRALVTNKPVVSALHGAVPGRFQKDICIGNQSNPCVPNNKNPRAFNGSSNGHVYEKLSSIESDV

[2] = target: T1, Sigma intracellular receptor 2 (Rattus norvegicus, UniProt Q5U3Y7); experiment: Displacement of [3H]di-o-tolylguanidine from rat liver membrane sigma 2 receptor assessed as inhibition constant measured after 120 mins by scintillation counting method; format: cell membranes
T1 sequence (Q5U3Y7 whole entry): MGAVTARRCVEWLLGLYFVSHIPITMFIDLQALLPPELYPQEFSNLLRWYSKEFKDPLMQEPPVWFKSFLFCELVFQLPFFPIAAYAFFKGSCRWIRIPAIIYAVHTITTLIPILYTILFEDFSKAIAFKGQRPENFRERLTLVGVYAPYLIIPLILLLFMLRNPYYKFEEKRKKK

[3] = target: Sigma non-opioid intracellular receptor 1 (Cavia porcellus, UniProt Q60492); experiment: Displacement of [3H]-(+)-pentazocine from guinea pig brain membrane sigma 1 receptor assessed as inhibition constant measured after 120 mins by scintillation counting method; format: cell membranes
Sequence of Sigma non-opioid intracellular receptor 1 (Q60492 whole entry): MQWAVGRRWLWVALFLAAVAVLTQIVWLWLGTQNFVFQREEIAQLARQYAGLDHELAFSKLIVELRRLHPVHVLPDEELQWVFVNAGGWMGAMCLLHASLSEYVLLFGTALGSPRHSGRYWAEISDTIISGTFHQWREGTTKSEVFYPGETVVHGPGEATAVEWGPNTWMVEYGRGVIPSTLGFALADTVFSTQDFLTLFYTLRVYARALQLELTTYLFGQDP

[4] = target: Glutamate receptor ionotropic, NMDA 2B (Mus musculus, UniProt P35438+Q01097); experiment: Displacement of [3H]ifenprodil from GluN2B in mouse LTK cells assessed as inhibition constant measured after 120 mins by scintillation counting method; format: cell-based
Sequence of Glutamate receptor ionotropic, NMDA 2B (Q01097 whole entry, one chain of several): as the sequence (Q01097 whole entry) above

[5] = Lipophilicity, logD of the compound at pH 7.4 by LC-MS analysis; format: physicochemical; details: buffer
[6] = Plasma protein binding in human by HPAC method; format: ADME, cell-free; details: read-out: PPB (converted)
Mus musculus [7] = experiment: Antiallodynic activity in capsaicin-induced mechanical allodynia CD1 mouse model assessed as increase in paw withdrawal latency at 32 mg/kg, sc pretreated for 30 mins followed by capsaicin addition and measured after 15 mins; format: functional, organism-based; details: time 45.0 min
Mus musculus [8] = experiment: Antiallodynic activity in capsaicin-induced allodynia CD1 mouse model at 16 mg/kg, ip measured after 15 mins relative to control; format: functional; details: 0.25 h
Mus musculus [9] = experiment: Antiallodynic activity in ip dosed capsaicin-induced allodynia CD1 mouse model measured after 15 mins; format: functional; details: CD1, 0.25 h
[10] = target: T2, Sigma intracellular receptor 2 (Rattus norvegicus) (UniProt Q5U3Y7); experiment: Displacement of [3H]di-o-tolylguanidine from rat liver membrane sigma 2 receptor at 1 uM measured after 120 mins by scintillation counting method relative to control; format: cell membranes
T2 sequence (whole entry): T1 sequence (Q5U3Y7 whole entry)

Mus musculus [11] = experiment: Antiallodynic activity in capsaicin-induced allodynia CD1 mouse model at 16 mg/kg, sc pretreated for 30 mins followed by capsaicin addition and measured after 15 mins relative to control; format: functional; details: time 45 min, 0.75 h
Mus musculus [12] = experiment: Antiallodynic activity in capsaicin-induced mechanical allodynia CD1 mouse model assessed as increase in paw withdrawal latency at 16 mg/kg, sc pretreated with PRE-084 followed by compound addition; format: functional, organism-based
[13] = Metabolic stability in C57BL/6 mouse liver microsomes assessed as compound remaining incubated for 90 mins in presence of NADPH by LC-MS analysis; format: ADME, Microsome; details: read-out: Activity
Mus musculus [14] = experiment: Antiallodynic activity in capsaicin-induced mechanical allodynia CD1 mouse model assessed as increase in paw withdrawal latency at 4 to 32 mg/kg, sc pretreated for 30 mins followed by capsaicin addition and measured after 15 mins; format: functional, organism-based; details: dose 4-32 mg/kg, time 45.0 min
Mus musculus [15] = experiment: Antiallodynic activity in sc dosed capsaicin-induced allodynia CD1 mouse model pretreated for 30 mins followed by capsaicin addition and measured after 15 mins; format: functional; details: CD1, 0.75 h, time 45 min

Ki [2] [nM] | Ki [3] [nM] | Ki [4] [nM] | SMILES | also measured
– | 449 | 49 | CN1CCN(CCc2ccc(Cl)c(Cl)c2)CC1 | –
75 | 2.9 | 45 | COc1ccc(CC2CCN(C[C@](C)(O)[C@@H]3CC[C@@H](C)C[C@H]3O)CC2)cc1 | –
216 | 18 | 363 | C[C@@H]1CC[C@@H]([C@](C)(O)CN2CCC(Cc3ccccc3)CC2)[C@@H](O)C1 | –
172 | 1 | 125 | C[C@@H]1CC[C@@H]([C@@](C)(O)CN2CCC(Cc3ccccc3)CC2)[C@@H](O)C1 | –
– | > 1000 | > 58 | Cc1cc(OCCN2CCOCC2)nn1-c1ccc2ccccc2c1 | Activity (Mus musculus [7]): Active; Activity (Mus musculus [8]): 43%; ED50 (Mus musculus [9]): 26.3 mg/kg
123 | 3.5 | 267 | C[C@@H]1CC[C@@H]2[C@H](C1)OCO[C@]2(C)CN1CCC(Cc2ccccc2)CC1 | –
194 | 2.8 | 92 | C[C@@H]1CC[C@@H]([C@](C)(O)CN2CCC(Cc3ccccc3)CC2)[C@H](O)C1 | –
36 | 1.2 | 53 | C[C@@H]1CC[C@@H]([C@@](C)(O)CN2CCC(Cc3ccccc3)CC2)[C@H](O)C1 | fraction unbound [6]: 0.122; Activity (Mus musculus [11]): ~89%; Activity (Mus musculus [12]): inactive; logD [5]: 3.05; remaining at 1.5 h [13]: 19%; Activity (Mus musculus [14]): Active; ED50 (Mus musculus [15]): ~8 mg/kg

Second part, the compound before the results:

SMILES | Ki [2] [nM] | Ki [3] [nM] | Ki [4] [nM] | also measured
C[C@@H]1CC[C@@H]2[C@@H](C1)O[C@@H]1CN(CCCCc3ccccc3)C[C@@]2(C)O1 | 1600 | 805 | – | inhibition [1]: 0%
C[C@@H]1CC[C@@H]2[C@@H](C1)OC(C)(C)O[C@@]2(C)CN1CCC(Cc2ccccc2)CC1 | 649 | 16 | 1300 | –
C[C@@H]1CC[C@@H]2[C@@H](C1)OCO[C@@]2(C)CN1CCC(Cc2ccccc2)CC1 | 119 | 5 | 36 | logD [5]: 3.45
C[C@@H]1CC[C@@H]2[C@H](C1)OCO[C@@]2(C)CN1CCC(Cc2ccccc2)CC1 | 145 | 4.9 | 205 | –
C[C@@H]1CC[C@@H]2[C@@H](C1)OCO[C@@]2(C)CNCCCCc1ccccc1 | 86 | 69 | 61 | fraction unbound [6]: 0.061; logD [5]: 2.67
C[C@@H]1CC[C@@H]([C@@](C)(O)CNCCCCc2ccccc2)[C@H](O)C1 | 850 | 8.2 | 1300 | fraction unbound [6]: 0.073; logD [5]: 1.84
C[C@@H]1CC[C@@H]2[C@H](C1)OCO[C@@]2(C)CNCCCCc1ccccc1 | 525 | 8.6 | 313 | –
C[C@@H]1CC[C@@H]([C@@](C)(O)CNCCCCc2ccccc2)[C@@H](O)C1 | 424 | 7 | 1060 | –
C[C@@H]1CC[C@@H]2[C@H](C1)OC1CN(CCCCc3ccccc3)C[C@]2(C)O1 (single isomer, unassigned) | – | 725 | – | inhibition [1]: 0%; inhibition [10]: 0%
C[C@@H]1CC[C@@H]2[C@@H](C1)O[C@H]1CN(CCCCc3ccccc3)C[C@]2(C)O1 | – | 2100 | – | fraction unbound [6]: < 0.02; inhibition [1]: 6%; inhibition [10]: 0%; logD [5]: 3.96
C[C@@H]1CC[C@@H]([C@](C)(O)CNCCCCc2ccccc2)[C@H](O)C1 | 207 | 31 | 508 | –
C[C@@H]1CC[C@@H]2[C@@H](C1)OCO[C@]2(C)CN1CCC(Cc2ccccc2)CC1 | 379 | 1.6 | 370 | –
C[C@@H]1CC[C@@H]2[C@H](C1)O[C@@H]1CN(CCCCc3ccccc3)C[C@@]2(C)O1 | 779 | 54 | 890 | –
C[C@@H]1CC[C@@H]([C@](C)(O)CNCCCCc2ccccc2)[C@@H](O)C1 | 265 | 43 | 511 | –
C[C@@H]1CC[C@@H]2[C@H](C1)OCO[C@]2(C)CNCCCCc1ccccc1 | 273 | 42 | 263 | –
C[C@@H]1CC[C@@H]2[C@@H](C1)OCO[C@]2(C)CNCCCCc1ccccc1 | 322 | 9.7 | 408 | –
C[C@@H]1CC[C@@H]2[C@@H](C1)OC(C)(C)O[C@]2(C)CN1CCC(Cc2ccccc2)CC1 | 880 | 114 | 423 | –
